# According to patent US8664379B2, “Fused heterocyclic compounds as ion channel modulators” (Gilead Sciences, Inc., priority 2008, dated 2014):
# Biological target: wild-type human cardiac sodium channel, hNav1.5 (late sodium current) (Homo sapiens, UniProt Q14524)
# Assay: Late INa screening assay (PatchXpress whole cell patch clamp)
# Format: cell-based
# Details: 1 μM test compound; HEK293 cells expressing hNav1.5; late INa generated with 10 μM Tefluthrin (some experiments 50 nM ATX II)
# Description: The late sodium current (Late INa) and peak sodium current (Peak INa) assays were performed on an automated electrophysiology platform, PatchXpress 7000A (MDS Analytical Technologies, Sunnyvale, Calif.), which uses the whole cell patch clamp technique to measure currents through the cell membrane of up to 16 cells at a time. The assay used an HEK293 (human embryonic kidney) cell line heterologously expressing the wild-type human cardiac sodium channel, hNav1.5, purchased from Millipore (Billerica, Mass.). No beta subunits were coexpressed with the Na channel alpha subunit. Cells were maintained with standard tissue culture procedures and stable channel expression was maintained with 400 μg/ml Geneticin in the culture medium. Cells isolated for use on PatchXpress were incubated for 5 minutes in Versene 1× and then for 2 minutes in 0.0125% Trypsin-EDTA (both at 37° C.) to ensure that 80-90% of the cells are single and not part of a cell cluster. Experiments were carried out at 24-27° C.
# For both the Late INa and Peak INa assays, series resistance compensation was set to 50% and whole-cell compensation was performed automatically. Currents were low-pass filtered at 10 kHz and digitized at 31.25 kHz. Currents through open sodium channels were automatically recorded and stored in the DataXpress2 database (MDS Analytical Technologies, Sunnyvale, Calif.). Analysis was performed using DataXpress2 analysis software and data are compiled in Excel.
# Compound stocks were routinely made in glass vials to 10 mM in dimethyl sulfoxide (DMSO). In some cases, when compounds were not soluble in DMSO, they were made in 100% ethanol. Stocks were sonicated as necessary. The extracellular solution for screening Late INa was composed of: 140 mM NaCl, 4 mM KCl, 1.8 mM CaCl2, 0.75 mM MgCl2, and 5 mM HEPES with pH adjusted to 7.4 using NaOH. The extracellular solution for screening Peak INa was composed of: 20 mM NaCl, 120 mM N-methyl-D glucamine, 4 mM KCl, 1.8 mM CaCl2, 0.75 mM MgCl2, and 5 mM HEPES with pH adjusted to 7.4 using HCl. The intracellular solution used to perfuse the inside of the cells for both the Late INa and Peak INa assays contains: 120 mM CsF, 20 mM CsCl, 5 mM EGTA, 5 mM HEPES and pH adjusted to 7.4 with CsOH. Compounds were diluted in extracellular solution to 10 μM in glass vials and then transferred to glass well plates before robotic addition to the cells. The 0Na extracellular solution used at the end of each experiment for the Late INa and Peak INa assays to measure baseline current contained: 140 mM N-methyl-D-glucamine; 4 mM KCl; 1.8 mM CaCl2; 0.75 mM MgCl2; 5 mM HEPES and pH was adjusted to 7.4 with HCl.
# For the Late INa assay, sodium channels were activated every 10 seconds (0.1 Hz) by depolarizing the cell membrane to −20 mV for 250 milliseconds (ms) from a holding potential of −120 mV. In response to a −20 mV voltage step, typical Nav1.5 sodium currents activated rapidly to a peak negative current and then inactivated nearly completely within 3-4 ms.
# All compounds were tested to determine their activity in blocking the late sodium current. Late INa current is generated by adding 10 μM Tefluthrin (pyrethroid) to the extracellular solution while recording Na currents. For some experiments, 50 nM ATX II (sea anemone toxin), another late INa activator, was used to generate the late component. Both activators generate late components that are large enough that block of the late component by compounds can be measured easily. For the purposes of the screening, late INa is defined as the mean current between 225 ms and 250 ms after stepping to −20 mV to activate Na channels. After establishing the whole cell recording configuration, late INa activators were added to each well 4 times over a 16-17 minute period so that the late component of the Na current reached a stable value. Compounds were then added (typically at 10 μM), in the presence of late INa activator, with 3 additions over the course of 7 or 8 minutes. […]
# wild-type human cardiac sodium channel, hNav1.5 (late sodium current), sequence (Q14524 whole entry): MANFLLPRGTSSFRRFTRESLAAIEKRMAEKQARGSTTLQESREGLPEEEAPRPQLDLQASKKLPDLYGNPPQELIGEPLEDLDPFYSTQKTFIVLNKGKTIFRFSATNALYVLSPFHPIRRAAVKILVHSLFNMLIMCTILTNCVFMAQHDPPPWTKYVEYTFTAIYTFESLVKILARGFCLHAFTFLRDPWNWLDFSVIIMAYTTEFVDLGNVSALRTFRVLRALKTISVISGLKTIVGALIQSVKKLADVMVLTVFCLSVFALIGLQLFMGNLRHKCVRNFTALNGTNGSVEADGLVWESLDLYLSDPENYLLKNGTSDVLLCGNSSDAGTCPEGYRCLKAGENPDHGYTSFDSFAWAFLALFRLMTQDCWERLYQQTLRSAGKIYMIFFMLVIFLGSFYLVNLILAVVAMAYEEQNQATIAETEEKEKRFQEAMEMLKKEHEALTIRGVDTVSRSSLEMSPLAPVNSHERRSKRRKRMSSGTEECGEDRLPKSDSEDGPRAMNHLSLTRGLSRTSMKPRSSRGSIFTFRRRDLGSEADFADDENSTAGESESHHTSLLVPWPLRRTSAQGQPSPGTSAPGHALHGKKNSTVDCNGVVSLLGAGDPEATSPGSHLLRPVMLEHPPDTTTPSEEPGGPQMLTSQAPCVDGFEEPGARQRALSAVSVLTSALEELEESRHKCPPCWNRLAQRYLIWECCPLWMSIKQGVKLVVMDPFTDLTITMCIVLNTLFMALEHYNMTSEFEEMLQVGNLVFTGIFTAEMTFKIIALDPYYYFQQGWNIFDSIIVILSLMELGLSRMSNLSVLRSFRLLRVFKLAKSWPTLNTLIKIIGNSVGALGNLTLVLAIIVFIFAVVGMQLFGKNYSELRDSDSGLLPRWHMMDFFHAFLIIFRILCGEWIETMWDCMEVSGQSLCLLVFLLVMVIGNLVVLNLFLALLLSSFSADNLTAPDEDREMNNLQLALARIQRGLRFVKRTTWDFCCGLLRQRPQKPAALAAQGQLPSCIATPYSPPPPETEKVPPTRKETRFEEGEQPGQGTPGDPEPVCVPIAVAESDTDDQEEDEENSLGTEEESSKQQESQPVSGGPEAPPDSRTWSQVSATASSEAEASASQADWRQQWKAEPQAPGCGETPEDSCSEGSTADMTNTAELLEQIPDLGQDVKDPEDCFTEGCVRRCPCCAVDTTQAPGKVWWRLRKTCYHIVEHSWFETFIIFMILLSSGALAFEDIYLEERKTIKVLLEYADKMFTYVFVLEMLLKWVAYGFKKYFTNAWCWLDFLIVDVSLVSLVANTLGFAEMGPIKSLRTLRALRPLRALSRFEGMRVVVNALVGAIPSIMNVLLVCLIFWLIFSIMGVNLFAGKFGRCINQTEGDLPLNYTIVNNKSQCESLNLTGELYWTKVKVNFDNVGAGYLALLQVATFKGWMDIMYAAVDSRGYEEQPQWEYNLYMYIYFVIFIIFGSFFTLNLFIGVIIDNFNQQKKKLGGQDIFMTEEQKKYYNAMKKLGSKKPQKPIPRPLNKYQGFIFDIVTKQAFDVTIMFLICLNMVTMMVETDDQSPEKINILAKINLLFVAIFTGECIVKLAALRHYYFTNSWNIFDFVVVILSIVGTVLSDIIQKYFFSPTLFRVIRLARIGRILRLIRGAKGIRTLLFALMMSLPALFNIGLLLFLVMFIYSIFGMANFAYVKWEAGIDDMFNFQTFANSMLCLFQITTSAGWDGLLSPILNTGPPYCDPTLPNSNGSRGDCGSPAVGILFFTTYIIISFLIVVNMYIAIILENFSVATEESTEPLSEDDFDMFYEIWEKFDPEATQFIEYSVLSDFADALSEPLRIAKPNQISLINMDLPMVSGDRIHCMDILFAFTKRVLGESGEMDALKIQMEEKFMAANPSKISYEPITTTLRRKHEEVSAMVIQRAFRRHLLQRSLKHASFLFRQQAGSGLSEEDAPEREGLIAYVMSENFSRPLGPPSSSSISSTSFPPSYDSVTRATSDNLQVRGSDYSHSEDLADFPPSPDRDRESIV
row,SMILES,Late INa % blk (1 μM test cmpd)
1,"O=C1CCc2cc(-c3ccc(Cl)c(C(F)(F)F)c3)ccc2N1 [Compound 10, 6-[4-chloro-3-(trifluoromethyl)phenyl]-3,4-dihydroquinolin-2(1H)-one]",40%

# Same assay, conditions: HEK293, 10 μM test compound; HEK293 cells expressing hNav1.5; late INa generated with 10 μM Tefluthrin (some experiments 50 nM ATX II); read-out: Late INa % blk (10 μM test cmpd)
row,SMILES,inhibition at 10 µM
1,"CC(C)(C)OC(=O)CN1C(=O)CCc2cc(-c3ccc(C(F)(F)F)cc3)ccc21 [Compound 29, tert-butyl {2-oxo-6-[4-(trifluoromethyl)phenyl]-3,4-dihydroquinolin-1(2H)-yl}acetate]",69%
2,"O=C(O)CN1C(=O)CCc2cc(-c3ccc(Cl)cc3)ccc21 [Compound 68, [6-(4-chlorophenyl)-2-oxo-3,4-dihydroquinolin-1(2H)-yl]acetic acid]",23%
3,"NC(=O)c1ccc(-c2ccc3c(c2)CCC(=O)N3)cc1 [Compound 2, 4-(2-oxo-1,2,3,4-tetrahydroquinolin-6-yl)benzamide]",16%
4,"O=C1CCc2cc(-c3ccc(F)cc3)ccc2N1 [Compound 3, 6-(4-fluorophenyl)-3,4-dihydroquinolin-2(1H)-one]",29%
5,"NC(=O)c1cccc(-c2ccc3c(c2)CCC(=O)N3)c1 [Compound 6, 3-(2-oxo-1,2,3,4-tetrahydroquinolin-6-yl)benzamide]",23%
6,"CC(=O)c1cccc(-c2ccc3c(c2)CCC(=O)N3)c1 [Compound 8, 6-(3-acetylphenyl)-3,4-dihydroquinolin-2(1H)-one]",22%
7,"O=C1CCc2cc(-c3ccc(Cl)c(C(F)(F)F)c3)ccc2N1 [Compound 10, 6-[4-chloro-3-(trifluoromethyl)phenyl]-3,4-dihydroquinolin-2(1H)-one]",66%
8,"COC(=O)c1ccc(CN2C(=O)CCc3cc(-c4ccc(C(F)(F)F)cc4)ccc32)cc1 [Compound 87, methyl 4-((2-oxo-6-(4-(trifluoromethyl)phenyl)-3,4-dihydroquinolin-1(2H)-yl)methyl)benzoate]",20%
9,"CC(C)(C)c1nc(CN2C(=O)CCc3cc(-c4ccc(F)cc4)ccc32)no1 [Compound 35, 1-[(5-tert-butyl-1,2,4-oxadiazol-3-yl)methyl]-6-(4-fluorophenyl)-3,4-dihydroquinolin-2(1H)-one]",69%
10,"CC(C)(C)OC(=O)CN1C(=O)CCc2cc(-c3ccc(Oc4ccccc4)cc3)ccc21 [Compound 66, tert-butyl [2-oxo-6-(4-phenoxyphenyl)-3,4-dihydroquinolin-1(2H)-yl]acetate]",27%
11,"O=C1CCc2cc(-c3ccc(C(F)(F)F)c(F)c3)ccc2N1 [Compound 19, 6-(3-fluoro-4-(trifluoromethyl)phenyl)-3,4-dihydroquinolin-2(1H)-one]",31%
12,"N#Cc1cc(-c2ccc3c(c2)CCC(=O)N3)ccc1F [Compound 12, 2-fluoro-5-(2-oxo-1,2,3,4-tetrahydroquinolin-6-yl)benzonitrile]",27%
13,"CC(C)(C)OC(=O)CN1C(=O)CCc2cc(-c3cccc(Cl)c3)ccc21 [Compound 53, tert-butyl [6-(3-chlorophenyl)-2-oxo-3,4-dihydroquinolin-1(2H)-yl]acetate]",73%
14,"O=C1CCc2cc(-c3ccc(OC(F)(F)F)cc3)ccc2N1Cc1cccnc1 [Compound 37, 1-(pyridin-3-ylmethyl)-6-[4-(trifluoromethoxy)phenyl]-3,4-dihydroquinolin-2(1H)-one]",19%
15,"COc1cc2c(cc1-c1ccc(C(F)(F)F)c(F)c1)CCC(=O)N2 [Compound 82, 6-(3-fluoro-4-(trifluoromethyl)phenyl)-7-methoxy-3,4-dihydroquinolin-2(1H)-one]",54%
16,"N#Cc1cccc(-c2ccc3c(c2)CCC(=O)N3)c1 [Compound 41, 3-(2-oxo-1,2,3,4-tetrahydroquinolin-6-yl)benzonitrile]",12%
17,"COc1c(-c2ccc(Cl)cc2)cc2c(c1Br)NC(=O)CC2 [Compound 78, 8-bromo-6-(4-chlorophenyl)-7-methoxy-3,4-dihydroquinolin-2(1H)-one]",34%
18,"NC(=O)CN1C(=O)CCc2cc(-c3ccc(OC(F)(F)F)cc3)ccc21 [Compound 31, 2-{2-oxo-6-[4-(trifluoromethoxy)phenyl]-3,4-dihydroquinolin-1(2H)-yl}acetamide]",26%
19,"O=C1CCc2cc(-c3ccccc3F)ccc2N1 [Compound 7, 6-(2-fluorophenyl)-3,4-dihydroquinolin-2(1H)-one]",52%
20,"COc1cc2c(cc1-c1ccc(C(F)(F)F)cc1)CCC(=O)N2CC(=O)O [Compound 79, 2-(7-methoxy-2-oxo-6-(4-(trifluoromethyl)phenyl)-3,4-dihydroquinolin-1(2H)-yl)acetic acid]",12%
21,"CCOC(=O)CN1C(=O)CCc2cc(-c3ccc(C(F)(F)F)cc3)ccc21 [Compound 54, ethyl {2-oxo-6-[4-(trifluoromethyl)phenyl]-3,4-dihydroquinolin-1(2H)-yl}acetate]",13%

# Biological target: T1, hERG potassium channel (Homo sapiens, UniProt Q12809)
# T1 construct: expressed in transfected cells
# Assay: hERG screening assay (PatchXpress patch clamp)
# Format: cell-based
# Details: 1 μM test compound; hERG expressed in CHO cells; peak current at -50 mV
# Description: Compounds were screened to test their activity in blocking the hERG potassium channel. The hERG channel was heterologously expressed in a CHO (Chinese Hamster Ovary) cell line. Cells were maintained with standard tissue culture procedures and stable channel expression was maintained with 500 μg/ml G418 in the culture medium. Cells were harvested for testing on the PatchXpress automated patch clamp with Accumax (Innovative Cell Technologies, San Diego, Calif.) to isolate single cells.
# The following solutions were used for electrophysiological recordings. The external solution contained: 2 mM CaCl2; 2 mM MgCl2; 4 mM KCl; 150 mM NaCl; 10 mM Glucose; 10 mM HEPES (pH 7.4 with 1M NaOH, osmolarity). The internal solution contained: 140 mM KCl, 10 mM MgCl2, 6 mM EGTA, 5 mM HEPES, 5 mM ATP (pH adjusted to 7.25 with KOH).
# hERG channels are activated when the voltage is stepped to +20 mV from the −80 mV holding potential. During a 5 second step at +20 mV, the channels activated and then largely inactivated, so the currents were relatively small. Upon returning to −50 mV from +20 mV, hERG currents transiently became much larger as inactivation was rapidly removed and then the channel closed. The first step to −50 mV for 300 ms was used as a baseline for measuring the peak amplitude during the step to −50 mV after channel activation. The peak current at −50 mV was measured both under control conditions and after addition of compound.
# All compounds were prepared as 10 mM DMSO stocks in glass vials. Stock solutions were mixed by vigorous vortexing and sonication for about 2 minutes at room temperature. For testing, compounds were diluted in glass vials using an intermediate dilution step in pure DMSO and then further diluted to working concentrations in external solution. Dilutions were prepared no longer than 20 minutes before use.
# After achieving the whole-cell configuration, cells were monitored for 90 seconds to assess stability and washed with external solution for 66 seconds. The voltage protocol described above was then applied to the cells every 12 seconds and throughout the whole procedure. Only cells with stable recording parameters and meeting specified health criteria were allowed to enter the compound addition procedure.
# External solution containing 0.1% DMSO (vehicle) was applied to the cells first to establish the control peak current amplitude. After allowing the current to stabilize for 3 to 5 minutes, 1 μM and then 10 μM test compounds were applied. Each compound concentration was added 4 times and cells were kept in test solution until the effect of the compound reached steady state or for a maximum of 12 minutes. After addition of test compound, a positive control (1 μM Cisapride) was added—it must block >95% of the current for the experiment to be considered valid. Washout in the external solution compartment was performed until the recovery of the current reached steady state. Data were analyzed using DataXpress, Clampfit (Molecular Devices, Inc., Sunnyvale) and Origin 7 (Originlab Corp.)
# T1 sequence (Q12809 whole entry): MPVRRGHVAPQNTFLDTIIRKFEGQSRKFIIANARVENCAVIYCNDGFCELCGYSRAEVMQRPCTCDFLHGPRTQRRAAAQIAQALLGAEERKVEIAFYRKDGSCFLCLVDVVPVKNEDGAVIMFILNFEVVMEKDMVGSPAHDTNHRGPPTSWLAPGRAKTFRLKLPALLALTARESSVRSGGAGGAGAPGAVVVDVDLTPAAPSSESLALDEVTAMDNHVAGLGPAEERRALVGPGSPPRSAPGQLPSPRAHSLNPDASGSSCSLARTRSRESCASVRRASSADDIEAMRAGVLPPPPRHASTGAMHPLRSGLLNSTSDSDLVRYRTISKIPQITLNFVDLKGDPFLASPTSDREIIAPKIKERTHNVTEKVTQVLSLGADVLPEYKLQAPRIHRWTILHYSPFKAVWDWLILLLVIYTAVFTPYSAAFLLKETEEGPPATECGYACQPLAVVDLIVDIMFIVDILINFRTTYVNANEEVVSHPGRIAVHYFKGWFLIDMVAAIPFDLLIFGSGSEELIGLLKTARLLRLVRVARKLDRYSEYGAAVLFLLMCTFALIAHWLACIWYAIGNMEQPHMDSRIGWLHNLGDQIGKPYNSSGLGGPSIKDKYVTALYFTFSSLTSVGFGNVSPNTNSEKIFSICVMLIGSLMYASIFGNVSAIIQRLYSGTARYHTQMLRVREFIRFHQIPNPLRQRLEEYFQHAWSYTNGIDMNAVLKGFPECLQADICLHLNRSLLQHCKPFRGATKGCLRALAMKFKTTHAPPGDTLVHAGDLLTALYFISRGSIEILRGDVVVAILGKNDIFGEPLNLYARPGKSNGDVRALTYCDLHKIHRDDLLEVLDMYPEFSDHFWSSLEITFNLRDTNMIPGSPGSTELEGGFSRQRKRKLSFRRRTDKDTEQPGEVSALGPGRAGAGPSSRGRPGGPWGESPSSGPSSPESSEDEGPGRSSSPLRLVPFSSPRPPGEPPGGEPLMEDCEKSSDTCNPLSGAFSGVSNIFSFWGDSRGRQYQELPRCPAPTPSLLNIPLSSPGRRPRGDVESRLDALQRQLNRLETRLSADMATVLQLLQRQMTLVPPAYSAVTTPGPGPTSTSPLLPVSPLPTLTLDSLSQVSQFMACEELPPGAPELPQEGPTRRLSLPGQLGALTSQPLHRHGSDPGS
row,SMILES,hERG Patch Clamp hERG % blk 1 μm
1,"CC(C)(C)OC(=O)CN1C(=O)CCc2cc(-c3ccc(C(F)(F)F)cc3)ccc21 [Compound 29, tert-butyl {2-oxo-6-[4-(trifluoromethyl)phenyl]-3,4-dihydroquinolin-1(2H)-yl}acetate]",11%
2,"O=C(O)CN1C(=O)CCc2cc(-c3ccc(C(F)(F)F)cc3)ccc21 [Compound 44, {2-oxo-6-[4-(trifluoromethyl)phenyl]-3,4-dihydroquinolin-1(2H)-yl}acetic acid]",10%

# Same assay, conditions: 10 μM test compound; hERG expressed in CHO cells; peak current at -50 mV
row,SMILES,hERG Patch Clamp hERG % blk 10 μm
1,"CC(C)(C)OC(=O)CN1C(=O)CCc2cc(-c3ccc(C(F)(F)F)cc3)ccc21 [Compound 29, tert-butyl {2-oxo-6-[4-(trifluoromethyl)phenyl]-3,4-dihydroquinolin-1(2H)-yl}acetate]",97%
2,"O=C(O)CN1C(=O)CCc2cc(-c3ccc(C(F)(F)F)cc3)ccc21 [Compound 44, {2-oxo-6-[4-(trifluoromethyl)phenyl]-3,4-dihydroquinolin-1(2H)-yl}acetic acid]",10%
